For the experiment, the target named is FXR (Homo sapiens (Human), UniProt Q96RI1). As to the kind of experiment: FXR EC50 (FXR agonist activity reported with each example). It counts as cell-based.

Each structure is given as a SMILES string.

Sequence of FXR (Q96RI1 262-486): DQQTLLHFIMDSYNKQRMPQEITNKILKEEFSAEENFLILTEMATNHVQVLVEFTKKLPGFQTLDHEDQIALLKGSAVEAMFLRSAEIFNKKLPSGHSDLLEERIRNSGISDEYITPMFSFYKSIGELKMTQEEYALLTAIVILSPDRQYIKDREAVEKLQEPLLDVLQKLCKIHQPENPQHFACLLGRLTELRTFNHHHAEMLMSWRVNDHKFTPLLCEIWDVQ

A word on the EC50: it is the concentration that produces a half-maximal response. The low end stands for higher potency in that assay, the high end for lower potency in that assay. As to `CC(C)(C#N)c1ccc(C23CCC(/C=C/c4c(-c5ccccc5C(F)(F)F)noc4C4CC4)(CC2)CO3)cc1` [Example 476, (E)-2-(4-(4-(2-(5-cyclopropyl-3-(2-(trifluoromethyl)phenyl)isoxazol-4-yl)vinyl)-2-oxabicyclo[2.2.2]octan-1-yl)phenyl)-2-methylpropanenitrile], a half-maximal response (EC50) required 690 nM.
Next, `O=C(O)c1cccc2nc(C34CCC(/C=C/c5c(-c6c(Cl)cncc6Cl)noc5C5CC5)(CC3)CC4)sc12` [Example 503, (E)-2-(4-(2-(5-cyclopropyl-3-(3,5-dichloropyridin-4-yl)isoxazol-4-yl)vinyl)bicyclo[2.2.2]octan-1-yl)benzo[d]thiazole-7-carboxylic acid]: 31 nM; `Cc1cc(OCC23CCC(/C=C/c4c(-c5c(Cl)cncc5Cl)noc4C4CC4)(CC2)CC3)c2cc(C(=O)O)cc(F)c2n1` [Example 447, (E)-4-((4-(2-(5-cyclopropyl-3-(3,5-dichloropyridin-4-yl)isoxazol-4-yl)vinyl)bicyclo[2.2.2]octan-1-yl)methoxy)-8-fluoro-2-methylquinoline-6-carboxylic acid]: 2400 nM; `O=C(O)c1ccc2nc(C34CCC(/C=C/c5c(-c6ccccc6OC(F)(F)F)noc5C5CC5)(CC3)CC4)sc2c1` [Example 182, (E)-2-(4-(2-(5-cyclopropyl-3-(2-(trifluoromethoxy)phenyl)isoxazol-4-yl)vinyl)bicyclo[2.2.2]octan-1-yl)benzo[d]thiazole-6-carboxylic acid]: 100 nM.
Next, `O=C(O)c1csc(C23CCC(/C=C/c4c(-c5c(Cl)cncc5Cl)noc4C4CC4)(CC2)CC3)n1` [Example 510, (E)-2-(4-(2-(5-cyclopropyl-3-(3,5-dichloropyridin-4-yl)isoxazol-4-yl)vinyl)bicyclo[2.2.2]octan-1-yl)thiazole-4-carboxylic acid]: 410 nM.
The figure for `O=C(O)C1(c2cccc(C(O)C34CCC(OCc5c(-c6c(Cl)cccc6Cl)noc5C5CC5)(CC3)CC4)c2)CC1` (stereo not shown) [Example 129, 1-(3-((4-((5-cyclopropyl-3-(2,6-dichlorophenyl)isoxazol-4-yl)methoxy)bicyclo[2.2.2]octan-1-yl)(hydroxy)methyl)phenyl)cyclopropane-1-carboxylic acid] is 3000 nM; for `O=C(O)c1cc(C(F)(F)F)c2ccc(C34CCC(OCc5c(-c6c(Cl)cncc6Cl)noc5C5CC5)(CC3)CC4)nc2c1` [Example 422] it is 360 nM.
Consider `O=C(O)c1ccc2cc(OCC34CCC(OCc5c(-c6c(Cl)cccc6Cl)noc5C5CC5)(CC3)CC4)ccc2n1` [Example 105, 6-((4-((5-cyclopropyl-3-(2,6-dichlorophenyl)isoxazol-4-yl)methoxy)bicyclo[2.2.2]octan-1-yl)methoxy)quinoline-2-carboxylic acid], for which the EC50 came to 76 nM.
Next, `O=C(O)Cc1ccc(/C=C/C23CCC(OCc4c(-c5c(Cl)cncc5Cl)noc4C4CC4)(CC2)CC3)cc1` [Example 516, (E)-2-(4-(2-(4-((5-cyclopropyl-3-(3,5-dichloropyridin-4-yl)isoxazol-4-yl)methoxy)bicyclo[2.2.2]octan-1-yl)vinyl)phenyl)acetic acid]: 173 nM; `COC(=O)c1cccc(NC(=O)C23CCC(C=Cc4c(-c5c(Cl)cccc5Cl)noc4C4CC4)(CC2)C3)c1` [Example 229]: 3600 nM; `Clc1cccc(Cl)c1-c1noc(C2CC2)c1COC12CCC(COc3cccc(-c4nn[nH]n4)c3)(CC1)CC2` [Example 89, 4-((4-((3-(2H-tetrazol-5-yl)phenoxy)methyl)bicyclo[2.2.2]octan-1-yloxy)methyl)-5-cyclopropyl-3-(2,6-dichlorophenyl)isoxazole]: 120 nM.
The figure for `COc1ccc(-c2noc(C34CCC(OCc5c(-c6c(Cl)cncc6Cl)noc5C5CC5)(CC3)CC4)n2)cc1C(=O)NS(C)(=O)=O` [Example 236, 5-(5-(4-((5-cyclopropyl-3-(3,5-dichloropyridin-4-yl)isoxazol-4-yl)methoxy)bicyclo[2.2.2]octan-1-yl)-1,2,4-oxadiazol-3-yl)-2-methoxy-N-(methylsulfonyl)benzamide] is 26 nM.
Next, `O=C(O)c1ccc(OCC2CC2)c2nc(C34CCC(OCc5c(-c6c(Cl)cncc6Cl)noc5C5CC5)(CC3)CC4)ccc12` [Example 392]: 24 nM; `O=C(O)c1ccc(C23CCC(/C=C/c4c(-c5c(Cl)cncc5Cl)noc4C4CC4)(CC2)CO3)cc1` [Example 457, (E)-4-(4-(2-(5-cyclopropyl-3-(3,5-dichloropyridin-4-yl)isoxazol-4-yl)vinyl)-2-oxabicyclo[2.2.2]octan-1-yl)benzoic acid]: 87 nM; `NC(=O)c1ccc(C23CCC(CNc4c(-c5c(Cl)cccc5Cl)noc4C4CC4)(CC2)CO3)cc1` [Example 208, 4-(4-(((5-cyclopropyl-3-(2,6-dichlorophenyl)isoxazol-4-yl)amino)methyl)-2-oxabicyclo[2.2.2]octan-1-yl)benzamide]: 710 nM.
On to `O=C(O)c1ccc(C23CCC(COCc4c(-c5c(Cl)cccc5Cl)noc4C4CC4)(CC2)CC3)cc1` [Example 174, 4-(4-(((5-cyclopropyl-3-(2,6-dichlorophenyl)isoxazol-4-yl)methoxy)methyl)bicyclo[2.2.2]octan-1-yl)benzoic acid], for which the concentration for a half-maximal effect (EC50) was found to be 210 nM.
Next, `CCn1nc(C(=O)O)c2ccc(C34CCC(OCc5c(-c6c(Cl)cncc6Cl)noc5C5CC5)(CC3)CC4)nc21` [Example 403]: 4 nM; `O=C(O)c1ccc2cc(CCC34CCC(OCc5c(-c6c(Cl)cncc6Cl)noc5C5CC5)(CC3)CC4)ccc2n1` [Example 515, 6-(2-(4-((5-cyclopropyl-3-(3,5-dichloropyridin-4-yl)isoxazol-4-yl)methoxy)bicyclo[2.2.2]octan-1-yl)ethyl)quinoline-2-carboxylicacid]: 87 nM.
The figure for `O=C(O)c1csc(OCC23CCC(OCc4c(-c5c(Cl)cncc5Cl)noc4C4CC4)(CC2)CC3)n1` [Example 465, 2-((4-((5-cyclopropyl-3-(3,5-dichloropyridin-4-yl)isoxazol-4-yl)methoxy)bicyclo[2.2.2]octan-1-yl)methoxy)thiazole-4-carboxylic acid] is 180 nM; for `O=C(O)c1cccc(-c2nc(C34CCC(OCc5c(-c6ccccc6OC(F)(F)F)noc5C5CC5)(CC3)CC4)no2)n1` [Example 61] it is 840 nM; for `O=C(O)c1ccc(C#CC23CCC(OCc4c(-c5c(Cl)cncc5Cl)noc4C4CC4)(CC2)CC3)nn1` [Example 419] it is 2000 nM.
The figure for `O=C(O)c1cc(O)c2cc(OCC34CCC(OCc5c(-c6c(Cl)cncc6Cl)noc5C5CC5)(CC3)CC4)ccc2n1` [Example 327, 6-((4-((5-cyclopropyl-3-(3,5-dichloropyridin-4-yl)isoxazol-4-yl)methoxy)bicyclo[2.2.2]octan-1-yl)methoxy)-4-hydroxyquinoline-2-carboxylic acid] is 170 nM; for `O=C(O)c1cc(C#CC23CCC(OCc4c(-c5c(Cl)cncc5Cl)noc4C4CC4)(CC2)CC3)cc2cn[nH]c12` [Example 401] it is 74 nM; for `CS(=O)(=O)NC(=O)c1cc(C(F)(F)F)c2cc(OCC34CCC(OCc5c(-c6c(Cl)cncc6Cl)noc5C5CC5)(CC3)CC4)ccc2n1` [Example 286] it is 19 nM.
Turning to `COC(=O)c1ccc(-c2noc(C34CCC(C=Cc5c(-c6c(Cl)cccc6Cl)noc5C5CC5)(CC3)C4)n2)cc1` [Intermediate 226C, methyl 4-(5-(4-(2-(5-cyclopropyl-3-(2,6-dichlorophenyl)isoxazol-4-yl)vinyl)bicyclo[2.2.1]heptan-1-yl)-1,2,4-oxadiazol-3-yl)benzoate], the midpoint of the response, the EC50, lay at 2500 nM.
For `CC(C)Oc1cc(C#CC23CCC(OCc4c(-c5c(Cl)cncc5Cl)noc4C4CC4)(CC2)CC3)cc(C(=O)O)c1` [Example 400], the EC50 was found to be 29 nM.
Next, `O=C(O)c1cc(C(F)(F)F)c2nc(C34CCC(OCc5c(-c6c(Cl)cncc6Cl)noc5C5CC5)(CC3)CC4)ccc2c1` [Example 370]: 56 nM.
The compound `O=C(O)c1cccc(NC(=O)C23CCC(C=Cc4c(-c5c(Cl)cccc5Cl)noc4C4CC4)(CC2)CC3)c1` [Example 190] gave a 50% effective concentration (EC50) of 3500 nM.
Next, `O=C(O)c1cc(OCC23CCC(COCc4c(-c5c(Cl)cncc5Cl)noc4C4CC4)(CC2)CC3)cc(C(F)(F)F)c1` [Example 464, 3-((4-(((5-cyclopropyl-3-(3,5-dichloropyridin-4-yl)isoxazol-4-yl)methoxy)methyl)bicyclo[2.2.2]octan-1-yl)methoxy)-5-(trifluoromethyl)benzoic acid]: 300 nM; `O=C(O)c1cc(OCC2CC2)c2cc(OCC34CCC(OCc5c(-c6c(Cl)cncc6Cl)noc5C5CC5)(CC3)CC4)c(F)cc2n1` [Example 314, 6-((4-((5-cyclopropyl-3-(3,5-dichloropyridin-4-yl)isoxazol-4-yl)methoxy)bicyclo[2.2.2]octan-1-yl)methoxy)-4-(cyclopropylmethoxy)-7-fluoroquinoline-2-carboxylic acid]: 67 nM; `CCOc1cc(OCC23CCC(OCc4c(-c5ccccc5C(F)(F)F)noc4C4CC4)(CC2)CC3)cnc1C(=O)O` [Example 297]: 543 nM.
The figure for `Cn1cc(C(=O)O)c2ccc(OCC34CCC(OCc5c(-c6c(Cl)cncc6Cl)noc5C5CC5)(CC3)CC4)cc21` [Example 97, 6-((4-((5-cyclopropyl-3-(3,5-dichloropyridin-4-yl)isoxazol-4-yl)methoxy)bicyclo[2.2.2]octan-1-yl)methoxy)-1-methyl-1H-indole-3-carboxylic acid] is 28 nM.
Next, `FC(F)(F)Oc1ccccc1-c1noc(C2CC2)c1COC12CCC(/C=C/c3cccc(-c4nnn[nH]4)c3)(CC1)CC2` [Example 8, (E)-4-(((4-(3-(1H-tetrazol-5-yl)styryl)bicyclo[2.2.2]octan-1-yl)oxy)methyl)-5-cyclopropyl-3-(2-(trifluoromethoxy)phenyl)isoxazole]: 380 nM.
Regarding `COc1cc(OCC23CCC(/C=C/c4c(-c5c(Cl)cncc5Cl)noc4C4CC4)(CC2)CC3)cc(C(=O)O)c1` [Example 493, (E)-3-((4-(2-(5-cyclopropyl-3-(3,5-dichloropyridin-4-yl)isoxazol-4-yl)vinyl)bicyclo[2.2.2]octan-1-yl)methoxy)-5-methoxybenzoic acid], a half-maximal response (EC50) required 18 nM.

These data come from US10730863B2, “Bridged bicyclic compounds as farnesoid X receptor modulators” (BRISTOL-MYERS SQUIBB COMPANY, priority 2017, dated 2020).
